SMILES strings stand for the structures. ≈ marks a conversion by molar mass, not a printed value. Where “and” joins values, the source holds several entries; their conditions need not be identical. Equal entries are not always repeated.

For this series the following is noted: buffer; pH 7.4; 200.0 µM.
As a reminder, the solubility (kinetic) is the concentration staying in solution when a stock, usually in DMSO, is diluted into the medium. Take `N#CCCN(C(=O)CSc1n[nH]c(=O)[nH]c1=O)c1ccccc1`: the solubility (kinetic) is above 49.7 µg/mL.

Compound `CCc1cccc(CC)c1NC(=O)CN1CCc2cc(OC)c(OC)cc2C1` yielded a solubility (kinetic) of 38.8 µg/mL (≈ 101 µM).

`O=C(O)COc1ccc(NC(=O)C(c2ccccc2)c2ccccc2)cc1` came in with a kinetic solubility above 54.2 µg/mL.

`Cc1c(/C=N/NC(=O)c2ccc(Br)o2)cnn1C` had a solubility (kinetic) above 46.7 µg/mL.

For the compound `CC(=O)Nc1ccc(NC(=O)COC(=O)c2cc(S(=O)(=O)N3CCCC3)ccc2O)cc1`, the solubility (kinetic) is above 69.2 µg/mL.

On to `COCc1cc(C)nc2oc(C(=O)c3ccccc3)c(N)c12`, for which the kinetic solubility came out at 8.4 µg/mL (≈ 28.3 µM).

In turn, `COc1ccc(/C=N/NC(=O)c2cccnc2)c(C(=O)O)c1OC` registered a solubility (kinetic) above 49.4 µg/mL.

In turn, `O=c1oc2ccccc2c(NCCO)c1[N+](=O)[O-]` yielded a solubility (kinetic) above 37.5 µg/mL.

On to `CN(Cc1nc(-c2ccc(C(F)(F)F)cc2)no1)C1CCOCC1`, for which the solubility (kinetic) is 37.3 µg/mL (≈ 109 µM).

As for `CC(=O)NCCCc1nc2ccccc2n1Cc1ccccc1F`, the solubility (kinetic) came out at 48.6 µg/mL (≈ 149 µM).

In turn, `Nc1cc2c(cc1Cl)N(Cc1ccccc1)C(=O)CO2` gave a solubility (kinetic) above 43.3 µg/mL.

Compound `Cc1sc2ncnc(SCc3ccc(C(=O)O)cc3)c2c1C` yielded a solubility (kinetic) above 49.6 µg/mL.

In turn, `c1ccc2[nH]cnc2c1` showed a solubility (kinetic) above 17.7 µg/mL.

The compound `CCOc1ncccc1C(=O)OCC(=O)NCc1ccccc1` yielded a solubility (kinetic) of 45.9 µg/mL (≈ 146 µM).

With `O=C(Nc1ccccc1)N1CCCN(c2ccc(C(F)(F)F)cn2)CC1`, the kinetic solubility was found to be 9.7 µg/mL (≈ 26.6 µM).

As for `CC(=O)C(Cc1ccccc1)NC(=O)CN1CCc2ccccc2C1` (configuration not stated), the solubility (kinetic) was above 50.5 µg/mL.

As for `COc1ccc(/C(N)=N/OC(=O)c2cccc([N+](=O)[O-])c2C)cc1`, the kinetic solubility was 1.1 µg/mL (≈ 3.34 µM).

Take `N#C/C(=C\c1cccnc1)c1ccccn1`: the solubility (kinetic) is above 31.1 µg/mL.

As to `CC(NC(=O)COC(=O)Cc1ccc(Cl)cc1)c1ccccc1` (configuration not stated), the solubility (kinetic) was above 49.8 µg/mL.

In the case of `CCN1CCN(c2nc(NCCO)c3ccccc3n2)CC1.Cl`, the kinetic solubility came to 48 µg/mL.

The compound `N#CC(C(=S)Nc1ccccc1)c1nc2ccccc2[nH]1` (configuration not stated) registered a solubility (kinetic) of 0.9 µg/mL (≈ 3.08 µM).

Regarding `O=[N+]([O-])c1cccnc1Sc1ccccc1Cl`, the kinetic solubility is 1.7 µg/mL (≈ 6.37 µM).

As to `CN(CCC#N)S(=O)(=O)c1cc2c3c(c1)CCN3C(=O)CC2`, the kinetic solubility is above 47.9 µg/mL.

Regarding `O=C(Nc1ccccc1Cl)Nc1cccc2cccnc12`, the solubility (kinetic) was below 0.2 µg/mL.

In turn, `Cc1cc(C)c(OCC(=O)OC(C)C(=O)NC2CC2)c(C)c1` (configuration not stated) displayed a solubility (kinetic) above 45.8 µg/mL.

In the case of `COc1ccc(C(=O)N(c2ccccn2)C2CCCCC2)c(OC)c1`, the kinetic solubility worked out at 49.9 µg/mL (≈ 147 µM).

The compound `O=C(COC(=O)C1CCCC1)NCc1ccc(Cl)cc1` gave a solubility (kinetic) above 44.4 µg/mL.

Compound `c1ccc(-c2noc(CN3CCc4sccc4C3)n2)cc1` gave a solubility (kinetic) of 13.4 µg/mL (≈ 45.1 µM).

`CNCCCC12CCC(c3ccccc31)c1ccccc12.Cl`: the kinetic solubility is 45.8 µg/mL and > 47.1 µg/mL.

Consider `CCN1CCN(S(=O)(=O)c2ccc(Cl)c(C(=O)NCc3nc4ccccc4[nH]3)c2)CC1`, for which the kinetic solubility was 18.8 µg/mL (≈ 40.7 µM).

Take `CCc1noc(C)c1C(=O)OCC(=O)NCc1ccccc1`: the solubility (kinetic) is above 45.3 µg/mL.

In turn, `O=C(NCCCn1ccnc1)c1cc(C(=O)C2CCCCC2)c[nH]1` displayed a solubility (kinetic) of 49 µg/mL (≈ 149 µM).

Turning to `COc1ccc(C(C)=O)cc1Cn1nc(C)c([N+](=O)[O-])c1C`, the solubility (kinetic) is above 45.5 µg/mL.

With `CC(C)c1ccc2oc(=O)cc(CN3CCOCC3)c2c1`, the kinetic solubility turned out to be 41.9 µg/mL (≈ 146 µM).

Take `O=C(COc1ccccc1Cl)Nc1cccnc1`: the kinetic solubility stood at 33.7 µg/mL (≈ 128 µM).

In the case of `O=C(COC(=O)c1ccc[n+]([O-])c1)Nc1cc([N+](=O)[O-])ccc1Cl`, the kinetic solubility was above 52.8 µg/mL.

As to `CNc1ncnc2sc(-c3ccccc3)cc12`, the kinetic solubility turned out to be 4.3 µg/mL (≈ 17.8 µM).

On to `CN1C(=O)c2ccccc2N(C)C1c1ccc(F)cc1` (configuration not stated), for which the solubility (kinetic) was determined as 30.7 µg/mL (≈ 114 µM).

The compound `Cc1ccc2cc(C)c(SCC(=O)Nc3cc(C)on3)nc2c1` came in with a solubility (kinetic) below 0.2 µg/mL.

The compound `CC(C)CNC(=O)COC(=O)c1ccc(F)cc1Cl` had a kinetic solubility above 43.2 µg/mL.

For `CCN(CC)S(=O)(=O)c1cc(NS(=O)(=O)c2cccs2)ccc1C`, the solubility (kinetic) was above 58.3 µg/mL.

With `Cn1cc(C(=O)OCC(=O)NC2CCCC2)c2ccccc21`, the kinetic solubility was found to be 7.2 µg/mL (≈ 24 µM).

For `O=C(CN1C(=O)C2C3CCC(C3)C2C1=O)OCC(=O)c1ccccc1` (configuration not stated), the solubility (kinetic) was 48.1 µg/mL (≈ 141 µM).

Compound `CCOc1ccc(S(=O)(=O)NCCC(=O)NC2CCC(C)CC2)cc1` (configuration not stated) showed a solubility (kinetic) of 37.7 µg/mL (≈ 102 µM).

`Cc1ccc(CNCCc2ccc(F)cc2)s1` showed a solubility (kinetic) of 26.7 µg/mL (≈ 107 µM).

As to `Clc1ccc(OCCn2cnc(Cl)c2Cl)cc1`, the kinetic solubility came out at 21.1 µg/mL (≈ 72.4 µM).

In turn, `CC(=O)Nc1ccc(S(=O)(=O)NC2C3(C)CCC(C3)C2(C)C)cc1` (configuration not stated) returned a solubility (kinetic) below 0.4 µg/mL.

In turn, `COc1ccc(OC)c(N/C=C/C(=O)c2ccc(OC)c(OC)c2)c1` had a solubility (kinetic) below 0.7 µg/mL.

For `Oc1ccc(Cl)cc1CNc1cccc2cccnc12`, the kinetic solubility was found to be 0.5 µg/mL (≈ 1.76 µM).

With `Nc1nc(-c2cc3ccccc3o2)cs1`, the solubility (kinetic) is 3.3 µg/mL (≈ 15.3 µM).

Regarding `O=C1CCN(Cc2nc(-c3ccc(Cl)cc3)no2)CCN1`, the kinetic solubility was above 46 µg/mL.

With `Cc1cccc(NC(=S)N(CCN(C)C)Cc2cccs2)c1`, the kinetic solubility came to 46.7 µg/mL (≈ 140 µM).

These data come from PubChem BioAssay AID1996.
